# How the values were obtained:
# [1] = hydroxyl-radical-generating systems with copper ions (Cu2+); format: physicochemical
# Protocol: UCA isomers (10 or 40 μM) were oxidized with a hydroxyl-radical-generating system that consisted of various concentrations of ferrous ions (10–500 μM) and a fixed hydrogen peroxide concentration of 500 μM (the Fenton reagent), either in a sodium phosphate (10 or 20 mM) medium of pH 7.2, or in ultrapure water. In addition, two hydroxyl-radical-generating systems with copper ions (Cu^2+) were used, consisting of 50 μM Cu^2+ with either 500 μM hydrogen peroxide or 5 mM ascorbic acid.
# Evaluation of the data was difficult with the ascorbate system, because several interfering peaks had occurred in the chromatograms, which were probably derived from ascorbic acid and its oxidation products.
# When another hydroxyl-radical-generating system, based on copper ions (Cu^2+) was investigated, the combination of Cu^2+/ascorbic acid/hydrogen peroxide caused a large breakdown or trans-UCA (Table 3) and a moderate yield of UCA oxidation products, in favor of ImCOOH. […] For the situation in vivo, one must remember that the epidermal copper content is lower than iron (29).
# [2] = photooxidation of UCA with hydrogen peroxide under UV irradiation (HPLC); format: physicochemical; settings: for YIELD OF PHOTOOXIDATION PRODUCTS: sum of 8 major peaks; for PHOTOISOMERIZATION cis-UCA / PHOTOISOMERIZATION trans-UCA: trans-UCA starting material
# Protocol: Trans-UCA and cis-UCA were separated from each other and from several UCA oxidation products on a 4.6×250 mm Alltima C18 and Luna C18 reversed-phase column (Alitech, Deerfield, Ill. and Phenomenex, Torrence, Calif., resp.) with a flow of 0.8 mL/min, delivered by P-3500 HPLC-pumps (Pharmacia, Uppsala, Sweden). Samples of 20 to 200 μL were injected by a Promis II autosampler (Spark Holland, Emmen, The Netherlands) and chromatographic data were recorded on an SP 4270 integrator (Spectra Physics, San Jose, Calif.). Peak area data from samples were only processed under identical HPLC circumstances. A UV-detector (Applied Biosystems, model 759A, Foster City, Calif.) was set for 226 nm detection. Isocratic elution was performed with 10 mM ammonium formate buffer, containing 0.2–0.8 mM tetrabutylammonium(TBA)formate and 1% acetonitrile (pH 7.2). Collected fractions were acidified with formic acid up to a final concentration of 100 mM and passed through C18 could phase extraction columns (J T Baker, Deventer, The Netherlands) in order to remove TBA.
# A 1-cm quartz cuvette, filled with 1.4 mL sample, was placed in the parallel beam of a filtered 1000 W Xenon are lamp (Oriel, Stratford, Conn.). The samples were magnetically stirred during irradiation. To minimize infrared (heat) and visible radiation, the beam was passed through a water filter (7 cm), reflected by a dichroic mirror and filtered through a 1=mm UG11 filter. Short wave cut off was achieved by passing the beam through WG280, WG305 or WG335 filters with 3 mm thickness each (Schott-Jena, Mainz, Germany). Xenon lamp emission filtered through WG280 included UV-C, UV-B and UV-A; through WG305 UV-B and UV-A and through WG335 only UV-A was included. Two narrow bands in the UV-B and UV-A spectral regions were selected to monitor the xenon-arc emission. The probe of a calibrated EG&G 550 radiometer (Salem, Mass., USA) was equipped with a neutral density filter and narrow band filter type UV-M-IL (Schott-Jena) with a transmission maximum of 21% at 303 nm and a half-width of 11.5 nm to monitor UV-B or with a type UV-PIL (Schott-Jena) with a transmission maximum of 46% at 363 nm and a half-width of 7.7 nm to monitor UV-A. Transmission spectra of the optical filters were checked on a Perkin Elmer Lambda 40 UV/VIS spectrometer (Norwalk, Conn., USA).
# Additional irradiations were performed with fluorescent tubes TLI2, used as a UV-B source, and TL10R, used as a UV-A source (Philips, Eindhoven, The Netherlands), on samples that were magnetically stirred in small Petri dishes. The UV-B output was measured with an IL 443 phototherapy radiometer, fitted with a SEE 1240 silicon detector probe and the UV-A output with an IL 442A phototherapy radiometer with a SEE 115 detector probe (International Light, Newburyport, Mass., USA).
# The O—O bond of hydrogen peroxide can be cleaved by UV radiation to yield hydroxyl radicals. Because both UCA isomers could effectively scavenge hydroxyl radicals, it is to be expected that UCA will be degraded and/or converted into oxidation products. The ability of simulated solar UV radiation to convert trans-UCA in the presence of hydrogen peroxide into photooxidation products was tested in vitro and analyzed by reversed-phase HPLC analysis. Hydrogen peroxide eluted close to void volume and trans-UCA and cis-UCA eluted with markedly different elution times of 20 and 64 min (FIGS. 3a–d). […] Exposing 80 μM trans-UCA in the absence of hydrogen peroxide at pH 7.2 to WG280-filtered xenon-arc emission (including UV-C and UV-B) resulted only and in the formation of cis-UCA via the process of photoisomerization (FIG. 3b). […] main photooxidation products were recognized as new peaks based on retention times and were assigned in the chromatogram (FIG. 3c).
# In contrast, when exposures were performed with simulated solar radiation from which both UV-C and UV-B were blocked out by a WG335 filter, virtually no photo-oxidation products were found (FIG. 3d). […]
# [3] = TL10R unfiltered, 320–440 nm, UV-B 0, UV-A 324
# [4] = TL12 unfiltered, 280–366 nm, UV-B 3.6, UV-A 4.5
# [5] = Xe arc W3305, 292–400 nm, UV-B 18, UV-A 70
# [6] = Xe arc W3335, 320–400 nm, UV-B 0, UV-A 66
# [7] = Xe arc W3280, 270–400 nm, UV-B 37, UV-A 70
smiles,measurement,setting,value
"O=C(O)/C=C/c1cnc[nH]1 [trans-Urocanic acid, Trans-urocanic acid]",trans-UCA left,[1]; Cu2+ (50 μM) and ascorbic acid (5 mM) without hydrogen peroxide,3%
same,trans-UCA left,"[1]; Cu2+ (50 μM) and hydrogen peroxide (500 μM), without ascorbic acid",88%
same,YIELD OF PHOTOOXIDATION PRODUCTS,[2]; [3],16 (±5) A.U.
same,YIELD OF PHOTOOXIDATION PRODUCTS,[2]; [4],149 (±51) A.U.
same,YIELD OF PHOTOOXIDATION PRODUCTS,[2]; [5],239 (±14) A.U.
same,YIELD OF PHOTOOXIDATION PRODUCTS,[2]; [6],45 (±8) A.U.
same,lowering of initial weight after severe photooxidation,[2]; extensive UCA breakdown (<4% of each UCA isomer left over),~14%
same,UCA LEFT OVER,"[2]; trans-UCA 40 μM, hydrogen peroxide 500 μM, TL10R unfiltered, 320–440 nm, UV-B 0, UV-A 324 kJ · M^−1",99 (±3) %
same,UCA LEFT OVER,"[2]; trans-UCA 40 μM, hydrogen peroxide 500 μM, TL12 unfiltered, 280–366 nm, UV-B 3.6, UV-A 4.5 kJ · M^−1",90 (±20) %
same,UCA LEFT OVER,"[2]; trans-UCA 40 μM, hydrogen peroxide 500 μM, Xe arc W3280, 270–400 nm, UV-C,-B,-A included, UV-B 37, UV-A 70 kJ · M^−1",43 (±11) %
same,YIELD OF PHOTOOXIDATION PRODUCTS,"[2]; trans-UCA 40 μM, hydrogen peroxide 500 μM, Xe arc W3280, 270–400 nm, UV-B 37, UV-A 70",347 (±58) A.U.
same,UCA LEFT OVER,"[2]; trans-UCA 40 μM, hydrogen peroxide 500 μM, Xe arc W3305, 292–400 nm, UV-B,-A included, UV-B 18, UV-A 70 kJ · M^−1",64 (±6) %
same,UCA LEFT OVER,"[2]; trans-UCA 40 μM, hydrogen peroxide 500 μM, Xe arc W3335, 320–400 nm, only UV-A included, UV-B 0, UV-A 66 kJ · M^−1",95 (±5) %
same,PHOTOISOMERIZATION cis-UCA,[2]; [3],16%
same,PHOTOISOMERIZATION trans-UCA,[2]; [3],84 (±7) %
same,PHOTOISOMERIZATION cis-UCA,[2]; [4],59%
same,PHOTOISOMERIZATION trans-UCA,[2]; [4],41 (±4) %
same,PHOTOISOMERIZATION cis-UCA,[2]; [7],59%
same,PHOTOISOMERIZATION trans-UCA,[2]; [7],43 (±2) %
same,PHOTOISOMERIZATION cis-UCA,[2]; [5],53%
same,PHOTOISOMERIZATION trans-UCA,[2]; [5],47 (±3) %
same,PHOTOISOMERIZATION cis-UCA,[2]; [6],40%
same,PHOTOISOMERIZATION trans-UCA,[2]; [6],60 (±2) %

# Source: patent US7056938B1, “Method for scavenging radicals with urocanic acid, derivatives and analogues” (Academisch Ziekenhuis Bij De Univ., priority 1999, dated 2006)
